In PMC9295256 (Journal of medicinal chemistry, 2021):
“Also recorded” adds a separate entry of the source. Where two headings read alike, the source gives them in different places. Square brackets hold non-standard residues; d marks the D form. Peptide text beside a SMILES is read from it. * marks the point of attachment. Boc = CC(C)(C)OC(=O)*

Biological target: recombinant rat Nln (Rattus norvegicus, UniProt P42676)
Test: Nln activation, continuous quenched fluorescence substrate
Type: biochemical
[1] = 100% = normal enzyme turnover, mean of n = 4, 95% CI in parentheses

recombinant rat Nln, sequence (P42676 38-704): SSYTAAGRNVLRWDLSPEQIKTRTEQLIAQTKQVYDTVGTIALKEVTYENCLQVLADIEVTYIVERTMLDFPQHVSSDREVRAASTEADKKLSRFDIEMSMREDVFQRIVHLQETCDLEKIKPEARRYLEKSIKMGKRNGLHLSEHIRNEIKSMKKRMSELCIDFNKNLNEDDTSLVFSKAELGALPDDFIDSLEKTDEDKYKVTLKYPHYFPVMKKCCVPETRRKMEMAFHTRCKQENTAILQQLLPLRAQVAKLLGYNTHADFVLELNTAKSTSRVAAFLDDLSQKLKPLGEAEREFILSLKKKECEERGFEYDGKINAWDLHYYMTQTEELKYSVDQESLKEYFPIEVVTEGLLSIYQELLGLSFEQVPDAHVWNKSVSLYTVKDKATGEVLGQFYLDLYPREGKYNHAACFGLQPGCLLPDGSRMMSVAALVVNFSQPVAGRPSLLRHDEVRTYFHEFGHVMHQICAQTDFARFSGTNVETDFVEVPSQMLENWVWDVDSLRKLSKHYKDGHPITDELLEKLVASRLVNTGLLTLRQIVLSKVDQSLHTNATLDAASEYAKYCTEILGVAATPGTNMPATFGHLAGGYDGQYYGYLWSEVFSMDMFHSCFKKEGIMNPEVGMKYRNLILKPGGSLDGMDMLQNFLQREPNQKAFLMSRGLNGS

| Compound | Amax, maximum % activation achieved (95% CI) | Amax, maximum % activation achieved (95% CI) [1] | further results |
| --- | --- | --- | --- |
| N[C@H](Cc1c[nH]cn1)C(=O)NCCCCc1ccccc1 [Compound 8b, (R)-2-Amino-3-(1H-imidazol-4-yl)-N-(4-phenylbutyl)-propanamide] | – | 233.8 (215.9 to 254.8) % | – |
| N[C@H](Cc1c[nH]cn1)C(=O)NCc1cccc2ccccc12 [Compound 10d, (R)-2-Amino-3-(1H-imidazol-4-yl)-N-(naphthalen-1-ylmethyl)-propanamide] | – | 343 (325.2 to 363.5) % | – |
| N[C@H](Cc1c[nH]cn1)C(=O)NCCc1ccc(C(F)(F)F)cc1 [Compound 4l, (R)-2-Amino-3-(1H-imidazol-4-yl)-N-(4-(trifluoromethyl)-phenethyl)propanamide] | 330.1 (313.9 to 347.7) % | – | – |
| N[C@@H](Cc1c[nH]cn1)C(=O)Nc1ccccc1 [Compound 6a, (S)-2-Amino-3-(1H-imidazol-4-yl)-N-phenylpropanamide] | – | 466.6 (402.3 to 579.7) % | – |
| COc1ccccc1CNC(=O)[C@@H](N)Cc1c[nH]cn1 [Compound 5d, (S)-2-Amino-3-(1H-3l4-imidazol-4-yl)-N-(2-methoxybenzyl)-propanamide] | 385.8 (363.8 to 410.5) % | – | – |
| N[C@@H](Cc1ccc(O)cc1)C(=O)N[C@H](Cc1c[nH]cn1)C(=O)O [Compound 4a, H-Tyr-His-OH] | – | – | Nln activation, result in words: complete amelioration of Nln activation |
| N[C@@H](Cc1c[nH]cn1)C(=O)NCCc1ccc([N+](=O)[O-])cc1 [Compound 4o, (S)-2-Amino-3-(1H-imidazol-4-yl)-N-(4-nitrophenethyl)-propanamide] | 282.4 (266.5 to 299.5) % | – | – |
| N[C@H](Cc1c[nH]cn1)C(=O)NCc1cccc(C(F)(F)F)c1 [Compound 5m, (R)-2-Amino-3-(1H-imidazol-4-yl)-N-(3-(trifluoromethyl)benzyl)-propanamide] | 282 (258.4 to 309.1) % | – | – |
| N[C@H](Cc1c[nH]cn1)C(=O)Nc1ccccc1 [Compound 6b, (R)-2-Amino-3-(1H-imidazol-4-yl)-N-phenylpropanamide] | – | 440.3 (414.9 to 470.4) % | – |
| N[C@H](Cc1c[nH]cn1)C(=O)NCCc1ccc([N+](=O)[O-])cc1 [Compound 4p, (R)-2-Amino-3-(1H-imidazol-4-yl)-N-(4-nitrophenethyl)-propanamide] | 267.5 (250.1 to 287.1) % | – | – |
| N[C@@H](Cc1c[nH]cn1)C(=O)NCCc1ccc(C(F)(F)F)cc1 [Compound 4k, (S)-2-Amino-3-(1H-imidazol-4-yl)-N-(4-(trifluoromethyl)-phenethyl)propanamide] | 299.4 (283.9 to 316.2) % | – | – |
| COc1ccc(CCNC(=O)[C@@H](N)Cc2c[nH]cn2)cc1 [Compound 4e, (S)-2-Amino-3-(1H-imidazol-4-yl)-N-(4-methoxyphenethyl)-propanamide] | – | 339.4 (314.2 to 369.3) % | – |
| N[C@@H](Cc1c[nH]cn1)C(=O)N[C@@H](Cc1c[nH]cn1)C(=O)O [Compound 2, His–His] | 498.1 (481 to 516.5) % | – | – |
| N[C@H](Cc1c[nH]cn1)C(=O)NCc1ccc2ccccc2c1 [Compound 10b, (R)-2-Amino-3-(1H-imidazol-4-yl)-N-(naphthalen-2-ylmethyl)-propanamide] | – | 197.5 (184.9 to 214.8) % | – |
| N[C@@H](Cc1cnc[nH]1)C(=O)N[C@@H](Cc1ccccc1)C(=O)O [Compound 3, His–Phe] (H-His-Phe-OH) | 442.3 (418.8 to 467.6) % | – | – |
| N-(2-(1H-Indol-3-yl)ethyl)-3-(1H-imidazol-4-yl)propanamide [Compound 9c] | Inactive | – | A50, half maximal activation concentration (95% CI): Inactive; Nln activation, result in words: complete amelioration of activity; also recorded: ameliorates activity |
| CC(C)(C)OC(=O)N[C@@H](Cc1ccc(O)cc1)C(=O)N[C@H](Cc1ccccc1)C(=O)O [Compound 4b] (Boc-Tyr-[dF]-OH) | – | Inactive | Nln activation, result in words: inactive; A50, half maximal activation concentration (95% CI) (recombinant rat Nln, QFS […] μM, 37 °C, mean of n = 4, 95% CI in parentheses): Inactive |
| COc1cccc(CCNC(=O)[C@H](N)Cc2c[nH]cn2)c1 [Compound 4j, (R)-2-Amino-3-(1H-imidazol-4-yl)-N-(3-methoxyphenethyl)-propanamide] | – | 255.3 (230.5 to 284.8) % | – |
| N[C@@H](Cc1cnc[nH]1)C(=O)N[C@@H](Cc1ccc(O)cc1)C(=O)O [Compound 1, His–Tyr] (H-His-Tyr-OH) | 465.2 (440.2 to 492.3) % | – | – |
| N[C@H](Cc1c[nH]cn1)C(=O)Nc1cccc2cccnc12 [Compound 11b, (R)-2-Amino-3-(1H-imidazol-4-yl)-N-(quinolin-8-yl)propanamide] | – | 288.3 (274.3 to 303.3) % | mean Amax of the two enantiomers (mean over L and D enantiomer): 285% |
| NC(Cc1c[nH]cn1)C(=O)NCCc1c[nH]c2ccccc12 (racemic) [(rac)-9a, (rac)-N-(2-(1H-Indol-3-yl)ethyl)-2-amino-3-(1H-imidazol-4-yl)-propanamide] | – | 197 (177.5 to 222.8) % | – |
| N[C@H](Cc1c[nH]cn1)C(=O)NCCc1c[nH]c2ccccc12 [Compound 9e, (R)-N-(2-(1H-Indol-3-yl)ethyl)-2-amino-3-(1H-imidazol-4-yl)-propanamide] | – | 132 (122.5 to 143.6) % | Amax, maximum % activation achieved (95% CI) (100% = normal enzyme turnover, mean of n = 4, 95% CI in parentheses, listed as D-9e): 132% |
| N[C@H](Cc1c[nH]cn1)C(=O)NCCc1ccccc1 [Compound 4d, (R)-2-Amino-3-(1H-imidazol-4-yl)-N-phenethylpropanamide] | – | 294.6 (278.0 to 313) % | – |
| N[C@@H](Cc1c[nH]cn1)C(=O)NCc1ccc2ccccc2c1 [Compound 10a, (S)-2-Amino-3-(1H-imidazol-4-yl)-N-(naphthalen-2-ylmethyl)-propanamide] | – | 210.9 (191.7 to 231.9) % | – |
| N[C@@H](Cc1c[nH]cn1)C(=O)NCCCCc1ccccc1 [Compound 8a, (S)-2-Amino-3-(1H-imidazol-4-yl)-N-(4-phenylbutyl)-propanamide] | – | 328 (309 to 351) % | – |
| N[C@@H](Cc1c[nH]cn1)C(=O)NCCc1ccccc1 [Compound 4c, (S)-2-Amino-3-(1H-imidazol-4-yl)-N-phenethylpropanamide] | – | 337.2 (302 to 378.6) % | – |
| N[C@@H](Cc1c[nH]cn1)C(=O)NCCc1ccc2ccccc2c1 [Compound 9f, (S)-2-Amino-3-(1H-imidazol-4-yl)-N-(2-(naphthalen-2-yl)ethyl)-propanamide] | 323.7 (310.3 to 337.9) % | – | – |
| N[C@@H](Cc1c[nH]cn1)C(=O)NCCCc1ccccc1 [Compound 7a, (S)-2-Amino-3-(1H-imidazol-4-yl)-N-(3-phenylpropyl)-propanamide] | – | 288.1 (273.6 to 303.8) % | – |
| N[C@@H](Cc1c[nH]cn1)C(=O)NCc1ccc(F)cc1 [Compound 5n, (S)-2-Amino-N-(4-fluorobenzyl)-3-(1H-imidazol-4-yl)-propanamide] | 293 (276.5–310.7) % | – | – |

Further lines, with some results ahead:

| Amax, maximum % activation achieved (95% CI) | Compound | Amax, maximum % activation achieved (95% CI) [1] | further results |
| --- | --- | --- | --- |
| 319.1 (296.3 to 344.3) % | N[C@H](Cc1c[nH]cn1)C(=O)NCc1ccc(C(F)(F)F)cc1 [Compound 5i, (R)-2-Amino-3-(1H-imidazol-4-yl)-N-(4-(trifluoromethyl)benzyl)-propanamide] | – | – |
| 320.5 (299.7 to 343.9) % | N[C@H](Cc1c[nH]cn1)C(=O)NCc1ccc(F)cc1 [Compound 5o, (R)-2-Amino-N-(4-fluorobenzyl)-3-(1H-imidazol-4-yl)-propanamide] | – | – |
| 251.5 (233.7 to 271.3) % | N[C@H](Cc1c[nH]cn1)C(=O)NCc1ccc(SC(F)(F)F)cc1 [Compound 5s, (R)-2-Amino-3-(1H-imidazol-4-yl)-N-(4-((trifluoromethyl)thio)-benzyl)propanamide] | – | – |
| 337.1 (312 to 364.9) % | N[C@H](Cc1c[nH]cn1)C(=O)NCc1ccc(OC(F)(F)F)cc1 [Compound 5q, (R)-2-Amino-3-(1H-imidazol-4-yl)-N-(4-(trifluoromethoxy)-benzyl)propanamide] | – | – |
| 339.8 (325.4 to 355.4) % | N[C@H](Cc1c[nH]cn1)C(=O)NCCc1ccc2ccccc2c1 [Compound 9g, (R)-2-Amino-3-(1H-imidazol-4-yl)-N-(2-(naphthalen-2-yl)ethyl)-propanamide] | – | – |
| 258.2 (244 to 273.4) % | N[C@@H](Cc1c[nH]cn1)C(=O)NCCc1ccc(-c2ccccc2)cc1 [Compound 4q, (S)-N-(2-([1,1′-Biphenyl]-4-yl)ethyl)-2-amino-3-(1H-imidazol-4-yl)propanamide] | – | – |
| 269.7 (256.8 to 283.4) % | N[C@H](Cc1c[nH]cn1)C(=O)NCCc1ccc(-c2ccccc2)cc1 [Compound 4r, (R)-N-(2-([1,1′-biphenyl]-4-yl)ethyl)-2-amino-3-(1H-imidazol-4-yl)propanamide] | – | – |
| 310 (287.2 to 336.1) % | N[C@@H](Cc1c[nH]cn1)C(=O)NCc1ccc(OC(F)(F)F)cc1 [Compound 5p, (S)-2-Amino-3-(1H-imidazol-4-yl)-N-(4-(trifluoromethoxy)-benzyl)propanamide] | – | – |
| 324.9 (304 to 349) % | COc1ccccc1CNC(=O)[C@H](N)Cc1c[nH]cn1 [Compound 5e, (R)-2-Amino-3-(1H-3l4-imidazol-4-yl)-N-(2-methoxybenzyl)-propanamide] | – | – |
| 345.8 (317.5 to 378.3) % | N[C@H](Cc1c[nH]cn1)C(=O)NCc1ccccc1C(F)(F)F [Compound 5k, (R)-2-Amino-3-(1H-imidazol-4-yl)-N-(2-(trifluoromethyl)benzyl)-propanamide] | – | – |
| 287.5 (277.4 to 298.4) % | N[C@@H](Cc1c[nH]cn1)C(=O)NCc1ccc(SC(F)(F)F)cc1 [Compound 5r, (S)-2-Amino-3-(1H-imidazol-4-yl)-N-(4-((trifluoromethyl)thio)-benzyl)propanamide] | – | – |
